# Assay results as given in patent US4476128A, “2-Substituted thiazolyl-piperazine compounds, process for preparation thereof and utilizations thereof _” (Mitsuitoatsu Chemicals, Inc., priority 1980, dated 1984).
# Structures can show the parent of a compound that is named as a salt.
# What was measured:
# Sarcoma 180 [1] = assay: Test of Antitumor Effect to Sarcoma 180 by Subcutaneous Administration; assay type: in vivo, ICR female mice; conditions: 20 mg/Kg subcutaneous; for N: number of living mice, 0 weeks / N: number of living mice, 2 weeks / N: number of living mice, 4 weeks / N: number of living mice, 6 weeks / N: number of living mice, 8 weeks / N: number of living mice, 10 weeks: group of 6
# Experimental: To the control group, a physiological saline was similarly administered. […] The diameter D (mm) of the tumor was measured, and the average value and the number N of the living mice were determined to obtain results shown in Table 4.
# [2] = Test of Acute Toxicity by Oral Administration; assay type: in vivo, ddY male mice; conditions: mice, after 7 days
# Experimental: A solution or suspension of the compound in a physiological saline was orally administered to one group of three ddY male mice, and after 7 days, the estimated LD50 value was determined.
# [3] = test system: adjuvant arthritis caused by Mycobacterium tuberculosis adjuvant; assay: Adjuvant Arthritis Test; assay type: in vivo, SD male rats; conditions: 5 mg/Kg subcutaneous, 9 times, left hind leg, * P<0.05, ** P<0.01
# Experimental: The adjuvant arthritis in rats caused by injection of a Mycobacterium tuberculosis adjuvant is often utilized for a model test of chronic rheumatoid arthritis in men.
# The mechanism of manifestation of this disease has not completely been elucidated, but it is known that the cellular immunity takes an important role. The immunopotentiative action of the compound of the present invention was tested according to this known adjuvant arthritis test.
# A group of ten 9-weeks-old SD male rats were used for the test. In 0.1 ml of fluid paraffin, 0.4 mg of dry dead cells of Mycobacterium tuberculosis were suspended, and the suspension was injected under the heel skin of the right hind leg. The compound of the present invention was subcutaneously administered 9 times as a whole before and after injection of the adjuvant. The test compound was dissolved in a physiological saline and administered at a dose of 5 mg per Kg of the body weight. The swelling volume of the left hind leg as measured during the period of from the day of injection to the day of completion of the test, and the swelling ratio was calculated. For comparison, the test was similarly conducted by using Levamisole hydrochloride. F.t tests were carried out on the obtained test results. The group in which the test result was significant at a level of P<0.05 was marked by *, and the group in which the test result was significant at a level of P<0.01 was marked by **.
# Sarcoma 180 [4] = assay: Test of Antitumor Effect to Sarcoma 180 by Oral Administration; assay type: in vivo, ICR female mice; conditions: for D: average diameter (mm) of tumor, 2 weeks / D: average diameter (mm) of tumor, 4 weeks / D: average diameter (mm) of tumor, 6 weeks / D: average diameter (mm) of tumor, 8 weeks / D: average diameter (mm) of tumor, 10 weeks: 100 mg/Kg oral once a day, 10 days; for N: number of living mice, 0 weeks / N: number of living mice, 2 weeks / N: number of living mice, 4 weeks / N: number of living mice, 6 weeks / N: number of living mice, 8 weeks / N: number of living mice, 10 weeks: group of 6
# Experimental: To the control group, a physiological saline was similarly administered. The dose of the compound was 100 mg per Kg of the body weight. The diameter D (mm) of the tumor was measured, and the average value and the number N of the living mice were determined to obtain results shown in Table 4.
# EL-4 leukemic cells = assay: In-Vitro Test of Inhibition of Growth of Cancer Cell by Macrophage (3H-thymidine take-in); assay type: cell-based, C57 BL/6J mouse (EL-4 cells); ddY female mice (macrophages); conditions: 8 mg/Kg intraperitoneal; for Take-in Ratio (average value, %): macrophages collected after 4 days, 3H-thymidine incorporated into EL-4 cells; for inhibition of take-in of 3H-thymidine by EL-4 cells / macrophage activation (in words): hydrochloride
# Experimental: The results of the test of the action of the effective ingredient of the present invention on the macrophage will now be described with reference to the following Test 3. More specifically, the separated macrophage and EL-4 leukemic cell were mixed and cultured, and ^3 H-thymidine was added to a culture medium and the quantity of ^3 H-thymidine incorporated into the EL-4 cell was determined to examine the activity of the macrophage. When the macrophage is activated by administration of the effective ingredient of the present invention, inhibition of the growth of EL-4 cell, that is, phagocytosis of the cancer cell by the macrophage, is observed. Accordingly, if the take-in amount of ^3 H-thymidine is measured and this amount is reduced, it is confirmed that the macrophage has been activated. Test Procedures: […] The dose was 8 mg per Kg of the body weight. To the control group, a physiological saline was similarly administered. After passage of 4 days, exuded abdominal cells were collected and deposited on a plastic Petri dish to collect macrophages. […] Then, 0.1 μCi of ^3 H-thymidine was added and culturing was further conducted for 16 hours. Cells were collected on a filter paper from the culture medium and the amount of ^3 H-thymidine incorporated in was determined by a liquid scintillation counter.
# [5] = test system: delayed hypersensitivity induced by picryl chloride; assay: Test of Reinforcement of Delayed Hypersensitivity (picryl chloride, mouse ear thickness); assay type: in vivo, ICR male mice; conditions: 50 mg/Kg oral, simultaneously with sensitization; 24 hours after challenge; * P<0.05, ** P<0.01
# From the text: Various test systems using animals have been proposed for determining the immunopotentiative action. Results of the test of reinforcement of the delayed hypersensitivity, which is a typical test among these tests, will now be described.
# This system was used for the test of reinforcement of the delayed hypersensitivity.
# One group of eight ICR male mice, each having a body weight of about 30 g, was used for the test.
# Sensitization was effected by coating a 7% solution of picryl chloride in a 4/1 mixture of olive oil and acetone on the shaved abdomen of the mouse.
# Simultaneously with sensitization, a solution or suspension of the compound of the present invention in a 0.2% solution of carboxymethyl cellulose in a physiological saline was orally administered to the mouse at a dose of 50 mg per Kg of the body weight. To the control group, a 0.2% carboxymethyl cellulose solution in a physiological saline was similarly administered.
# The delayed hypersensitivity was challenged 7 days after sensitization by gripping the ear of the mouse by a forceps wrapped with a felt impregnated with a 1% solution of picryl chloride in olive oil and coating the ear with the solution. The thickness of the ear was measured before challenging and 24 hours after challenging and the ratio of increase of the thickness (average value of both the ears in eight mice±standard deviation) was obtained as shown in Table 1.
# For comparison, the test was similarly carried out by using Levamisole hydrochloride, and the obtained results are shown in Table 1. F.t tests were carried out. The group in which the test result was significant at a level of P<0.05 was marked by *, and the group in which the test result was significant at a level of P<0.01 was marked by **.
smiles,measurement,setting,value
"c1ccc([C@H]2CN3CCSC3=N2)cc1 [Levamisole hydrochloride, reference compound]",antitumor activity (in words),Sarcoma 180 [1],no substantial antitumor activity
same,"N: number of living mice, 0 weeks",Sarcoma 180 [1],6
same,"D: average diameter (mm) of tumor, 2 weeks",Sarcoma 180 [1],3.6 mm
same,"N: number of living mice, 2 weeks",Sarcoma 180 [1],6
same,"D: average diameter (mm) of tumor, 4 weeks",Sarcoma 180 [1],14.1 mm
same,"N: number of living mice, 4 weeks",Sarcoma 180 [1],6
same,"D: average diameter (mm) of tumor, 6 weeks",Sarcoma 180 [1],22.2 mm
same,"N: number of living mice, 6 weeks",Sarcoma 180 [1],6
same,"D: average diameter (mm) of tumor, 8 weeks",Sarcoma 180 [1],26.8 mm
same,"N: number of living mice, 8 weeks",Sarcoma 180 [1],3
same,"D: average diameter (mm) of tumor, 10 weeks",Sarcoma 180 [1],23.8 mm
same,"N: number of living mice, 10 weeks",Sarcoma 180 [1],2
same,estimated LD50 value,[2],150 to 200 mg/kg
same,"Swelling Ratio (average value ± standard variation, %), 15 days",[3],54.6 ± 11.3%
same,"Swelling Ratio (average value ± standard variation, %), 18 days",[3],61.7 ± 9.8%
same,"Swelling Ratio (average value ± standard variation, %), 21 days",[3],73.3 ± 14.6%
same,"D: average diameter (mm) of tumor, 2 weeks",Sarcoma 180 [4],8.1 mm
same,"D: average diameter (mm) of tumor, 4 weeks",Sarcoma 180 [4],16.8 mm
same,"D: average diameter (mm) of tumor, 6 weeks",Sarcoma 180 [4],23.1 mm
same,"D: average diameter (mm) of tumor, 8 weeks",Sarcoma 180 [4],27.4 mm
same,"D: average diameter (mm) of tumor, 10 weeks",Sarcoma 180 [4],25.5 mm
same,antitumor action (in words),"Sarcoma 180 [4]; 100 mg/Kg oral, repeatedly",no substantial antitumor action was observed
same,"N: number of living mice, 0 weeks",Sarcoma 180 [4]; 100 mg/Kg oral,6
same,"N: number of living mice, 2 weeks",Sarcoma 180 [4]; 100 mg/Kg oral,6
same,"N: number of living mice, 4 weeks",Sarcoma 180 [4]; 100 mg/Kg oral,6
same,"N: number of living mice, 6 weeks",Sarcoma 180 [4]; 100 mg/Kg oral,6
same,"N: number of living mice, 8 weeks",Sarcoma 180 [4]; 100 mg/Kg oral,6
same,"N: number of living mice, 10 weeks",Sarcoma 180 [4]; 100 mg/Kg oral,5
same,"Take-in Ratio (average value, %)",EL-4 leukemic cells,53.3%
same,inhibition of take-in of 3H-thymidine by EL-4 cells / macrophage activation (in words),EL-4 leukemic cells,does not exhibit such action
same,inhibition of take-in of 3H-thymidine by EL-4 cells / macrophage activation (in words),EL-4 leukemic cells; listed as Levamisole,hardly exhibits such action
same,"Ratio of Increase of Ear Thickness (average value ± standard variation, %)",[5],33.9 ± 3.0%
CCN(CC)C(=O)N1CCN(c2nc(-c3ccccc3)cs2)CC1 [drawing 8],"Ratio of Increase of Ear Thickness (average value ± standard variation, %)",[5],37.5 ± 2.1%
CCN(CC)C(=O)N1CCN(c2nccs2)CC1 [drawing 9],"Ratio of Increase of Ear Thickness (average value ± standard variation, %)",[5],36.6 ± 3.0%
CCN(CC)C(=O)N1CCN(c2nc(-c3ccccc3)cs2)CC1 [drawing 10],"Swelling Ratio (average value ± standard variation, %), 15 days",[3],43.5 ± 13.9%
same,"Swelling Ratio (average value ± standard variation, %), 18 days",[3],41.5 ± 12.6%
same,"Swelling Ratio (average value ± standard variation, %), 21 days",[3],52.9 ± 11.2%
CCN(CC)C(=O)N1CCN(c2nccs2)CC1 [drawing 11],"Swelling Ratio (average value ± standard variation, %), 15 days",[3],60.9 ± 8.0%
same,"Swelling Ratio (average value ± standard variation, %), 18 days",[3],59.8 ± 7.8%
same,"Swelling Ratio (average value ± standard variation, %), 21 days",[3],50.5 ± 10.0%
CCN(CC)C(=O)N1CCN(c2nc(-c3ccccc3)cs2)CC1 [drawing 12],"Take-in Ratio (average value, %)",EL-4 leukemic cells,21.0%
CCN(CC)C(=O)N1CCN(c2nccs2)CC1 [drawing 13],"Take-in Ratio (average value, %)",EL-4 leukemic cells,25.8%
CCN(CC)C(=O)N1CCN(c2nc(-c3ccccc3)cs2)CC1 [drawing 14],"D: average diameter (mm) of tumor, 2 weeks",Sarcoma 180 [4],5.6 mm
same,"D: average diameter (mm) of tumor, 4 weeks",Sarcoma 180 [4],3.5 mm
same,"D: average diameter (mm) of tumor, 6 weeks",Sarcoma 180 [4],4.6 mm
same,"D: average diameter (mm) of tumor, 8 weeks",Sarcoma 180 [4],0 mm
same,"D: average diameter (mm) of tumor, 10 weeks",Sarcoma 180 [4],0 mm
same,"N: number of living mice, 0 weeks",Sarcoma 180 [4]; 100 mg/Kg oral,6
same,"N: number of living mice, 2 weeks",Sarcoma 180 [4]; 100 mg/Kg oral,6
same,"N: number of living mice, 4 weeks",Sarcoma 180 [4]; 100 mg/Kg oral,6
same,"N: number of living mice, 6 weeks",Sarcoma 180 [4]; 100 mg/Kg oral,6
same,"N: number of living mice, 8 weeks",Sarcoma 180 [4]; 100 mg/Kg oral,6
same,"N: number of living mice, 10 weeks",Sarcoma 180 [4]; 100 mg/Kg oral,6
CCN(CC)C(=O)N1CCN(c2nccs2)CC1 [drawing 15],"D: average diameter (mm) of tumor, 2 weeks",Sarcoma 180 [4],8.6 mm
same,"D: average diameter (mm) of tumor, 4 weeks",Sarcoma 180 [4],7.5 mm
same,"D: average diameter (mm) of tumor, 6 weeks",Sarcoma 180 [4],6.7 mm
same,"D: average diameter (mm) of tumor, 8 weeks",Sarcoma 180 [4],7.7 mm
same,"D: average diameter (mm) of tumor, 10 weeks",Sarcoma 180 [4],0 mm
same,"N: number of living mice, 0 weeks",Sarcoma 180 [4]; 100 mg/Kg oral,6
same,"N: number of living mice, 2 weeks",Sarcoma 180 [4]; 100 mg/Kg oral,6
same,"N: number of living mice, 4 weeks",Sarcoma 180 [4]; 100 mg/Kg oral,6
same,"N: number of living mice, 6 weeks",Sarcoma 180 [4]; 100 mg/Kg oral,6
same,"N: number of living mice, 8 weeks",Sarcoma 180 [4]; 100 mg/Kg oral,6
same,"N: number of living mice, 10 weeks",Sarcoma 180 [4]; 100 mg/Kg oral,6
CCN(CC)C(=O)N1CCN(c2nc(-c3ccccc3)cs2)CC1 [drawing 16],"N: number of living mice, 0 weeks",Sarcoma 180 [1],6
same,"D: average diameter (mm) of tumor, 2 weeks",Sarcoma 180 [1],2.6 mm
same,"N: number of living mice, 2 weeks",Sarcoma 180 [1],6
same,"D: average diameter (mm) of tumor, 4 weeks",Sarcoma 180 [1],3.5 mm
same,"N: number of living mice, 4 weeks",Sarcoma 180 [1],6
same,"D: average diameter (mm) of tumor, 6 weeks",Sarcoma 180 [1],6.5 mm
same,"N: number of living mice, 6 weeks",Sarcoma 180 [1],6
same,"D: average diameter (mm) of tumor, 8 weeks",Sarcoma 180 [1],0.6 mm
same,"N: number of living mice, 8 weeks",Sarcoma 180 [1],6
same,"D: average diameter (mm) of tumor, 10 weeks",Sarcoma 180 [1],0 mm
same,"N: number of living mice, 10 weeks",Sarcoma 180 [1],6
CCN(CC)C(=O)N1CCN(c2nccs2)CC1 [drawing 17],"N: number of living mice, 0 weeks",Sarcoma 180 [1],6
same,"D: average diameter (mm) of tumor, 2 weeks",Sarcoma 180 [1],4.9 mm
same,"N: number of living mice, 2 weeks",Sarcoma 180 [1],6
same,"D: average diameter (mm) of tumor, 4 weeks",Sarcoma 180 [1],6.7 mm
same,"N: number of living mice, 4 weeks",Sarcoma 180 [1],6
same,"D: average diameter (mm) of tumor, 6 weeks",Sarcoma 180 [1],9.6 mm
same,"N: number of living mice, 6 weeks",Sarcoma 180 [1],6
same,"D: average diameter (mm) of tumor, 8 weeks",Sarcoma 180 [1],5.6 mm
same,"N: number of living mice, 8 weeks",Sarcoma 180 [1],6
same,"D: average diameter (mm) of tumor, 10 weeks",Sarcoma 180 [1],0 mm
same,"N: number of living mice, 10 weeks",Sarcoma 180 [1],6
